# Data reported in the NIST ThermoML archive (doi:10.1016/j.fluid.2009.07.009).
# Numbers after ± are expanded uncertainties.
# Experiment: relative permittivity at zero frequency (dimensionless)
# Conditions: 303.15 K; 101.33 kPa; Liquid; Parallel plate capacitor
row,Compound,relative permittivity at zero frequency
1,"CN(C)CCO [2-(N,N-dimethylamino)ethanol]",17.18 ± 0.1
2,CN(C)C=O [dimethylformamide],36.55 ± 0.22
3,NC=O [formamide],106.14 ± 0.01
